26 molecules from PubChem BioAssay (NCI) can be followed below.

Molecules are shown by their SMILES.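 Five compound concentrations were applied to cells in 96-well plates for 48 hours; endpoints were derived by simple linear interpolation of the resulting dose-response curve. The concentration for 50% growth inhibition is given as GI50. TGI: total growth inhibition.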 Where a SMILES comes first, the peptide text is derived from it. [ ]: non-standard residue; d: D form. The star is where a group is joined. Cbz = O=C(OCc1ccccc1)*; Aib = CC(C)(N)C(=O)O

Common to all, as to assay: DTP human tumour cell line panel, 48 h
Assay [1] relates to TK-10 renal.
The test system of assay [2] is LOX IMVI melanoma.
For assay [3], the system named is HCT-15 colon.
Assay [4] relates to NCI/ADR-RES ovarian.
The subject of assay [5] is HCC-2998 colon.
The test system of assay [6] is CAKI-1 renal.
The subject of assay [7] is NCI-H23 lung.
For assay [8], the system named is SF-539 CNS.
In assay [9] the test system is SF-295 CNS.
The test system of assay [10] is SW-620 colon.

As to `CC(C)(C)OC(=O)NNCC(O)COc1ccccc1` (centres undefined), the TGI in assay [1], in [2], in [3], in assay [4], in [5] and in assay [6] was greater than 100 µM throughout. In addition, the TGI in assay [7], in assay [8], in assay [9] and in [10] was greater than 100 µM in each case.

For `Fc1ccc2c(c1)nc1n2C(c2c(F)cccc2F)SC1` (centres undefined), the TGI in [1], in assay [2], in assay [3], in assay [4], in [5] and in assay [6] was greater than 100 µM in each case. For the same molecule, the TGI in assay [7], in assay [8], in assay [9] and in assay [10] was greater than 100 µM in each case.

Take `ClC1=C(Cl)C2OC3C=CCC3OC2C(Cl)=C1Cl` (centres undefined): the TGI (usually the concentration giving total growth inhibition) was greater than 100 µM in assay [1]; greater than 100 µM in [2]; greater than 100 µM in assay [3]; greater than 100 µM in [4]; 88.4 µM in [5]; greater than 100 µM in [6]. Moreover, the TGI in assay [7], in assay [8], in assay [9] and in assay [10] was greater than 100 µM in each case.

Regarding `Nc1ccn(CC(O)c2cc3ccccc3[nH]2)c(=O)n1` (centres undefined), the TGI in [1], in [2], in assay [3], in assay [4], in assay [5] and in assay [6] was greater than 100 µM each time. Further, the TGI in assay [7], in assay [8], in assay [9] and in assay [10] was greater than 100 µM each time.

`OCC(S)CS.[Bi]` (centres undefined): the TGI in assay [1] is 32.4 µM; in assay [2], greater than 100 µM; in assay [3], 50.7 µM; in [4], greater than 100 µM; in assay [5] it was 27.5 µM; in assay [6], 24.9 µM. Further, the TGI was 52.2 µM in assay [7], greater than 100 µM in assay [8], greater than 100 µM in assay [9] and greater than 100 µM in assay [10].

As to `Cc1ccc(C(=O)N/N=C(\N=Nc2ccccc2C(=O)O)c2ccc(N(C)C)cc2)cc1`, the TGI in assay [1], in assay [2], in assay [3], in assay [4], in assay [5] and in assay [6] was greater than 100 µM in each case. In addition, the TGI in assay [7], in [8], in assay [9] and in assay [10] was greater than 100 µM throughout.

`COc1ccc(S(=O)(=O)Nc2cc(Sc3cccc4cccnc34)c(O)c3ccccc23)cc1`: the GI50 (usually the concentration that inhibits growth by half) was 2.82 µM in assay [1]; 0.372 µM in [2]; 0.477 µM in [3]; 0.707 µM in [4]; 6.7 µM in [5]; 2.53 µM in assay [6]. The GI50 in [7] was 1.46 µM; in [8] it was 1.49 µM; in assay [9], 2.23 µM; in assay [10], 0.815 µM. The TGI is 13.7 µM in assay [1]; 8.23 µM in [3]; 12.2 µM in assay [4]; 21.3 µM in assay [5]; 10.5 µM in assay [6]; 10.8 µM in [7]. The TGI in [8] was 6.52 µM; in assay [9] it was 13.3 µM; in assay [10] it was 3.62 µM.

`C=C1CC(O)C2C(=C)C(=O)OC2C2C(C)C(=O)CC12` (centres undefined): the TGI in assay [1] stood at 18.7 µM; in assay [2] it was 80.2 µM; in assay [3], 17.1 µM; in assay [4] it was 49.7 µM; in assay [5], 34.4 µM; in assay [6] it was 16.6 µM. For the same molecule, the TGI stood at 31.8 µM in assay [7], 54.2 µM in assay [8], 68.9 µM in [9] and 30.7 µM in assay [10].

`CCOC(=O)Cc1cc(=O)[nH]c(-n2[nH]c(C)c(CCO)c2=O)n1`: the TGI in assay [1], in assay [2], in [3], in assay [4], in [5] and in assay [6] was greater than 100 µM in each case. Besides, the TGI in assay [7], in [8], in assay [9] and in [10] was greater than 100 µM in each case.

For the molecule `CC1C(c2ccccc2)NC(c2ccccc2)CC1(N)C#N` (centres undefined), the TGI in [1], in assay [2], in assay [3], in [4], in assay [5] and in assay [6] was greater than 100 µM throughout. Besides, the TGI in assay [7], in [8], in assay [9] and in assay [10] was greater than 100 µM each time.

As for `COc1ccc(/C=C2\OC(=O)C(Cl)=C2c2ccc(OC)c(Cl)c2)cc1`, the TGI was 45.6 µM in assay [1]; greater than 100 µM in assay [2]; greater than 100 µM in assay [3]; 52.6 µM in assay [4]; greater than 100 µM in assay [5]; 56.8 µM in assay [6]. In addition, the TGI was 44.9 µM in assay [7], 33.2 µM in [8], 67.6 µM in [9] and greater than 100 µM in assay [10].

On to `Cn1c2ccccc2c2c3c(c4c5ccccc5n(C)c4c21)C(=O)N(c1ccccc1)C3=O`, for which the total growth inhibition concentration (TGI) in [1], in assay [2], in [3], in assay [4], in [5] and in assay [6] was greater than 100 µM each time. Moreover, the TGI in assay [7], in [8], in assay [9] and in assay [10] was greater than 100 µM in each case.

For `NC(=S)NS(=O)(=O)c1ccc(Cl)cc1`, the TGI in assay [1], in assay [2], in assay [3], in [4], in assay [5] and in assay [6] was greater than 100 µM each time. Also, the TGI in assay [7], in assay [8], in assay [9] and in [10] was greater than 100 µM each time.

With `CCOC(=O)C1=C(C)N(Cc2ccccc2)C2(O)C(OC)CC(=O)C3C(=O)N(c4ccccc4)C(=O)C132` (centres undefined), the TGI is 53 µM in assay [1]; greater than 100 µM in assay [2]; greater than 100 µM in assay [3]; greater than 100 µM in assay [4]; 53.5 µM in assay [5]; 64.8 µM in [6]. The TGI in [7] was greater than 100 µM; in [8], 48.6 µM; in assay [9], 47.5 µM; in assay [10], greater than 100 µM.

As for `CC(C)=C=CP(=O)(O)c1ccccc1`, the TGI in assay [1], in [2], in [3], in [4], in assay [5] and in assay [6] was greater than 100 µM in each case. For the same molecule, the TGI in [7], in [8], in assay [9] and in assay [10] was greater than 100 µM in each case.

In the case of `Nc1c(C(=O)O)nnc2cc(Cl)ccc12`, the TGI in [1], in assay [2], in assay [3], in assay [4], in [5] and in assay [6] was greater than 100 µM in each case. Moreover, the TGI in [7], in [8], in [9] and in [10] was greater than 100 µM in each case.

For `CCC(C)N1CN(c2ccccc2)C2(CCN(CCCC3(c4ccc(F)cc4)OCCO3)CC2)C1=O` (centres undefined), the total growth inhibition concentration (TGI) is 20.7 µM in assay [1]; 21.6 µM in assay [2]; 10.8 µM in assay [3]; 27.6 µM in assay [4]; 26.9 µM in assay [5]; greater than 68.3 µM in assay [6]. Also, the TGI in [7] was 18.1 µM; in assay [8] it was 10.1 µM; in assay [9], 10.6 µM; in assay [10], 28.8 µM.

In the case of `COc1ccc(/C=C(/c2ccc(OC)cc2)c2c(Cl)cc(Cl)c(/C(=C\c3ccc(OC)cc3)c3ccc(OC)cc3)c2N=Nc2ccccc2)cc1`, the TGI in assay [1], in assay [2], in assay [3], in assay [4], in [5] and in assay [6] was greater than 100 µM each time. The TGI in assay [7], in [8], in [9] and in assay [10] was greater than 100 µM throughout.

As for `CC(C)(NC(=O)C(C)(C)NC(=O)OCc1ccccc1)C(=O)O` (Cbz-[Aib]-[Aib]-OH), the concentration for total growth inhibition (TGI) in [1], in assay [2], in assay [3], in assay [4], in assay [5] and in assay [6] was greater than 100 µM throughout. For the same molecule, the TGI in [7], in assay [8], in assay [9] and in assay [10] was greater than 100 µM each time.

On to `O=NNc1c[nH]c(=O)[nH]c1=O`, for which the TGI in assay [1], in assay [2], in assay [3], in assay [4], in [5] and in assay [6] was greater than 100 µM each time. The TGI in assay [7], in assay [8], in [9] and in [10] was greater than 100 µM each time.

With `O=C(O)C1CSC2(CCCN(Cc3ccccc3)C2)N1` (centres undefined), the TGI in [1], in assay [2], in [3], in assay [4], in assay [5] and in assay [6] was greater than 100 µM throughout. Besides, the TGI in [7], in assay [8], in assay [9] and in assay [10] was greater than 100 µM in each case.

For `CCCCCCCCCCOc1ccc(N=Nc2nnc(-c3ccc(OCCCCC)cc3)s2)cc1`, the TGI in assay [1], in assay [2], in assay [3], in assay [4], in assay [5] and in [6] was greater than 100 µM in each case. In addition, the total growth inhibition concentration (TGI) in assay [7], in [8], in [9] and in assay [10] was greater than 100 µM in each case.

Turning to `O=C(CN1CCN(c2ccccn2)CC1)N1CCCn2c1nc1ccccc1c2=O`, the TGI in assay [1], in [2], in assay [3], in [4], in assay [5] and in [6] was greater than 100 µM throughout. Besides, the TGI in assay [7], in assay [8], in [9] and in assay [10] was greater than 100 µM each time.

For `CC1CN=C(c2ccc(CN3CCC(CCCC4CCN(Cc5ccc(C6=NCC(C)N6)cc5)CC4)CC3)cc2)N1` (centres undefined), the TGI in assay [1] was greater than 100 µM; in assay [2], greater than 100 µM; in [3] it was greater than 100 µM; in assay [4] it was greater than 100 µM; in assay [5], 28.7 µM; in [6] it was greater than 100 µM. Moreover, the TGI in assay [7], in assay [8], in assay [9] and in assay [10] was greater than 100 µM throughout.

Consider `O=C(O)c1cccc(S(=O)(=O)NN2C(=O)CSC2c2c(O)ccc3ccccc23)c1` (centres undefined), for which the TGI in assay [1] is greater than 100 µM; in assay [2], 60 µM; in [3] it was greater than 100 µM; in assay [4], 76.9 µM; in assay [5] it was greater than 100 µM; in [6] it was 68 µM. For the same molecule, the TGI was 51.1 µM in assay [7], 55.8 µM in assay [8], 94.9 µM in [9] and 65.7 µM in assay [10].

As to `Cn1c(-c2c(C3=CC(=O)N(c4ccccc4)C3=O)c3ccccc3n2C)cc2ccccc21`, the TGI in assay [1], in [2], in [3], in assay [4], in assay [5] and in assay [6] was greater than 100 µM throughout. Besides, the TGI in assay [7], in assay [8], in [9] and in [10] was greater than 100 µM throughout.
